Results reported in ChEMBL document CHEMBL1799998, “Exploration of antimicrobial and antioxidant potential of newly synthesized 2,3-disubstituted quinazoline-4(3H)-ones” (Bioorg Med Chem Lett, 2011).

How the values were obtained:
Assay type in all cases: functional
[1] = tested on: Bacillus subtilis; test: Antimicrobial activity against Bacillus subtilis after 24 hrs by disc diffusion method; note: test concentration or dose not given here
[2] = tested on: Radical scavenging activity; test: Antioxidant activity against DPPH free radical assessed as compound able to consume half the initial amount of DPPH free radical by spectrophotometry; conditions: TDE = time-dependent effect
[3] = tested on: Radical scavenging activity; test: Antioxidant activity against DPPH free radical assessed as compound able to consume half the initial amount of DPPH free radical after 30 to 60 mins by spectrophotometry
[4] = tested on: Staphylococcus aureus; test: Antimicrobial activity against Staphylococcus aureus after 24 hrs by disc diffusion method; note: test concentration or dose not given here
[5] = tested on: Pseudomonas aeruginosa; test: Antimicrobial activity against Pseudomonas aeruginosa after 24 hrs by disc diffusion method; note: test concentration or dose not given here
[6] = tested on: Escherichia coli; test: Antimicrobial activity against Escherichia coli after 24 hrs by disc diffusion method; note: test concentration or dose not given here

| Structure (SMILES) | IC50 [3] | inhibition zone (IZ) [1] | Activity [2] | Activity [3] | inhibition zone (IZ) [4] | inhibition zone (IZ) [5] | inhibition zone (IZ) [6] |
| --- | --- | --- | --- | --- | --- | --- | --- |
| CC1(C)S[C@@H]2[C@H](NC(=O)[C@H](N)c3ccccc3)C(=O)N2[C@H]1C(=O)O [AMPICILLIN] | – | 40 mm | – | – | 36 mm | 20 mm | 28 mm |
| CC1=NC(=S)N(n2c(CCl)nc3ccccc3c2=O)C(=O)C1/N=N/c1ccccc1 (centres undefined) | – | 16.2 mm | tde | Dose-dependent effect | 24.5 mm | 7 mm | 11.5 mm |
| CC1=NC(=S)N(n2c(CCl)nc3ccccc3c2=O)C(=O)C1/N=N/c1ccc(O)cc1 (centres undefined) | 5.4 µM | 18.5 mm | tde | Dose-dependent effect | 27 mm | 10 mm | 13.5 mm |
| CC1=NC(=S)N(n2c(CCl)nc3ccccc3c2=O)C(=O)C1/N=N/c1ccc(O)c([N+](=O)[O-])c1 (centres undefined) | 8.6 µM | 20 mm | tde | Dose-dependent effect | 29 mm | 12 mm | 14 mm |
| O=C1O[C@H]([C@@H](O)CO)C(O)=C1O [ASCORBIC ACID] | 9.2 µM | – | – | – | – | – | – |

Further lines, with some results ahead:

| IC50 [3] | Structure (SMILES) | inhibition zone (IZ) [1] | Activity [2] | Activity [3] | inhibition zone (IZ) [4] | inhibition zone (IZ) [5] | inhibition zone (IZ) [6] |
| --- | --- | --- | --- | --- | --- | --- | --- |
| 7 µM | CC1=NC(=S)N(n2c(CCl)nc3ccccc3c2=O)C(=O)C1/N=N/c1ccc(Cl)cc1O (centres undefined) | 29 mm | tde | Dose-dependent effect | 33 mm | 18.5 mm | 20.5 mm |
| 3 µM | COc1ccc(/N=N/C2C(=O)N(n3c(CCl)nc4ccccc4c3=O)C(=S)N=C2C)cc1O (centres undefined) | 42.1 mm | tde | Dose-dependent effect | 47.5 mm | 28 mm | 30 mm |
| 2.1 µM | CC1=NC(=S)N(n2c(CCl)nc3ccccc3c2=O)C(=O)C1/N=N/c1ccc(O)cc1O (centres undefined) | 24.5 mm | tde | Dose-dependent effect | 30 mm | 13.5 mm | 15.5 mm |
| 8.3 µM | CC1=NC(=S)N(n2c(CCl)nc3ccccc3c2=O)C(=O)C1/N=N/c1cccc(Cl)c1O (centres undefined) | 31.5 mm | tde | Dose-dependent effect | 33.5 mm | 21.5 mm | 20.9 mm |
| 1.4 µM | CC1=NC(=S)N(n2c(CCl)nc3ccccc3c2=O)C(=O)C1/N=N/c1ccc(O)c(O)c1 (centres undefined) | 27 mm | tde | Dose-dependent effect | 31.5 mm | 16 mm | 17.5 mm |
| 3.5 µM | CC1=NC(=S)N(n2c(CCl)nc3ccccc3c2=O)C(=O)C1/N=N/c1cccc(C)c1O (centres undefined) | 36.5 mm | tde | Dose-dependent effect | 44.5 mm | 23.5 mm | 27.5 mm |
| 5.1 µM | CC1=NC(=S)N(n2c(CCl)nc3ccccc3c2=O)C(=O)C1/N=N/c1ccc(C)cc1O (centres undefined) | 33 mm | tde | Dose-dependent effect | 39 mm | 22 mm | 25 mm |
